Measurements published in ChEMBL document CHEMBL1137505, “Direct diazo-transfer reaction on beta-lactam: synthesis and preliminary biological activities of 6-triazolylpenicillanic acids” (2007).
In brackets after ≈: the same amount, converted by molar mass.

Tests used:
Assay type in all cases: functional
Bacillus anthracis = test: Antibacterial activity against Bacillus anthracis AMES
Escherichia coli = test: Antibacterial activity against Escherichia coli ATCC 25922
Streptococcus pneumoniae = test: Antibacterial activity against Streptococcus pneumoniae ATCC 49619
Staphylococcus aureus = test: Antibacterial activity against Staphylococcus aureus ATCC 29213

Row | Compound | MIC (Bacillus anthracis) | MIC (Escherichia coli) | MIC (Streptococcus pneumoniae) | MIC (Staphylococcus aureus)
1 | CC1(C)S[C@@H]2[C@H](n3cc(-c4ccccc4-c4ccccc4)nn3)C(=O)N2[C@H]1C(=O)O | > 8 µg/mL | > 8 µg/mL | > 8 µg/mL | > 8 µg/mL
2 | CC1(C)S[C@@H]2[C@H](n3cc(C(O)c4ccc(-c5ccncc5)cc4)nn3)C(=O)N2[C@H]1C(=O)[O-].[Na+] (stereo partly drawn) | ≥ 8 µg/mL | > 8 µg/mL | ≥ 8 µg/mL | > 8 µg/mL
3 | CC1(C)S[C@@H]2[C@H](n3cc(C(O)c4ccccc4)nn3)C(=O)N2[C@H]1C(=O)O (stereo partly drawn) | > 8 µg/mL | > 8 µg/mL | > 8 µg/mL | > 8 µg/mL
4 | CC1(C)S[C@@H]2[C@H](n3cc(-c4ccc(-c5ccccc5)cc4)nn3)C(=O)N2[C@H]1C(=O)O | > 8 µg/mL | > 8 µg/mL | ≥ 8 µg/mL | > 8 µg/mL
5 | CC1(C)S[C@@H]2[C@H](n3cc(-c4ccc(-c5ccncc5)cc4)nn3)C(=O)N2[C@H]1C(=O)O | > 8 µg/mL | > 8 µg/mL | > 8 µg/mL | > 8 µg/mL
6 | CC1(C)S[C@@H]2[C@H](n3cc(Cc4ccccc4)nn3)C(=O)N2[C@H]1C(=O)O | > 8 µg/mL | > 8 µg/mL | 4 µg/mL (≈ 11.2 µM) | > 8 µg/mL
7 | COc1cccc(OC)c1-c1cn([C@@H]2C(=O)N3[C@@H]2SC(C)(C)[C@@H]3C(=O)O)nn1 | > 8 µg/mL | > 8 µg/mL | > 8 µg/mL | > 8 µg/mL
8 | CC1(C)S[C@@H]2[C@H](n3cc(-c4cccnc4)nn3)C(=O)N2[C@H]1C(=O)O | > 8 µg/mL | > 8 µg/mL | > 8 µg/mL | > 8 µg/mL
9 | CC1(C)S[C@@H]2[C@H](n3cc(-c4ccccn4)nn3)C(=O)N2[C@H]1C(=O)O | > 8 µg/mL | > 8 µg/mL | > 8 µg/mL | > 8 µg/mL
10 | CC1(C)S[C@@H]2[C@H](n3cc(-c4ccccc4)nn3)C(=O)N2[C@H]1C(=O)O | > 8 µg/mL | > 8 µg/mL | 4 µg/mL (≈ 11.6 µM) | > 8 µg/mL
11 | CC1(C)S[C@@H]2[C@H](n3cc(-c4cccc(-c5ccccc5)c4)nn3)C(=O)N2[C@H]1C(=O)O | > 8 µg/mL | > 8 µg/mL | > 8 µg/mL | > 8 µg/mL
12 | CC1(C)S[C@@H]2[C@H](n3cc(-c4ccncc4)nn3)C(=O)N2[C@H]1C(=O)O | > 8 µg/mL | > 8 µg/mL | > 8 µg/mL | > 8 µg/mL
13 | CC1(C)S[C@@H]2[C@H](n3cc(-c4cccs4)nn3)C(=O)N2[C@H]1C(=O)O | > 8 µg/mL | > 8 µg/mL | 8 µg/mL (≈ 22.8 µM) | > 8 µg/mL
14 | CC1(C)S[C@@H]2[C@H](NC(=O)Cc3ccccc3)C(=O)N2[C@H]1C(=O)O [PENICILLIN G] | ≤ 0.125 µg/mL | > 2 µg/mL |  | 1 µg/mL (≈ 2.99 µM)
15 | CCN1CCN(C(=O)N[C@@H](C(=O)N[C@@H]2C(=O)N3[C@@H]2SC(C)(C)[C@@H]3C(=O)O)c2ccccc2)C(=O)C1=O [PIPERACILLIN] | 1 µg/mL (≈ 1.93 µM) | 4 µg/mL (≈ 7.73 µM) |  | 2 µg/mL (≈ 3.86 µM)
